Test results from patent US11014902B2, “MYC G-quadruplex stabilizing small molecules and their use” (The United States of America, as represented by the …, priority 2015, dated 2021).

How the values were obtained:
Assay in all cases: NCI-60 cell growth (SRB)
Assay type in all cases: cell-based
K-562 = settings: K-562, Leukemia; 10 μM, 48 hours
Experimental: (§1) This example illustrates that Compounds 1 and 23 can be used in inhibit the growth of c-Myc expressing cancer cell lines in vitro. The NCI-60 panel of cancer cell lines (see Shoemaker, Nat. Rev. Cancer, 6, 813-823, 2006, and dtp.cancer.gov/discovery_development/nci-60/) was assayed for cell growth in the presence of 10 μM Compound 1 or Compound 23 for 48 hours. At 48 hours, the assay was terminated by fixation with TCA and determination of relative cell counts by addition of Sulforhodamine B (SRB, see Alley et al., Cancer Research, 48: 589-601, 1988.). Growth percent was determined by comparison of SRB reading of a duplicate plate of cells taken at the time of compound addition to the SRB reading at the termination of the treatment. The following table provides a summary of the percent of growth of each cell line in the panel compared to control (no treatment), as well as the mean delta and range of percent growth compared to control across the panel of cell lines for each treatment condition.

786-0 = settings: 786-0, Renal Cancer; 10 μM, 48 hours
Experimental: as §1

M14 = settings: M14, Melanoma; 10 μM, 48 hours
Experimental: as §1

NCI-H522 = settings: NCI-H522, Non-Small Cell Lung Cancer; 10 μM, 48 hours
Experimental: as §1

SK-OV-3 = settings: SK-OV-3, Ovarian Cancer; 10 μM, 48 hours
Experimental: as §1

HS 578T = settings: Breast Cancer, 10 μM, 48 hours
Experimental: as §1

NCI-H460 = settings: NCI-H460, Non-Small Cell Lung Cancer; 10 μM, 48 hours
Experimental: as §1

MCF7 = settings: MCF7, Breast Cancer; 10 μM, 48 hours
Experimental: as §1

SR = settings: Leukemia, 10 μM, 48 hours
Experimental: as §1

IGROV1 = settings: IGROV1, Ovarian Cancer; 10 μM, 48 hours
Experimental: as §1

SN12C = settings: Renal Cancer, 10 μM, 48 hours
Experimental: as §1

OVCAR-5 = settings: OVCAR-5, Ovarian Cancer; 10 μM, 48 hours
Experimental: as §1

HL-60(TB) = settings: Leukemia, 10 μM, 48 hours
Experimental: as §1

DU-145 = settings: DU-145, Prostate Cancer; 10 μM, 48 hours
Experimental: as §1

UO-31 = settings: UO-31, Renal Cancer; 10 μM, 48 hours
Experimental: as §1

CCRF-CEM = settings: Leukemia, 10 μM, 48 hours
Experimental: as §1

HT29 = settings: HT29, Colon Cancer; 10 μM, 48 hours
Experimental: as §1

COLO 205 = settings: COLO 205, Colon Cancer; 10 μM, 48 hours
Experimental: as §1

LOX IMVI = settings: Melanoma, 10 μM, 48 hours
Experimental: as §1

MDA-MB-468 = settings: MDA-MB-468, Breast Cancer; 10 μM, 48 hours
Experimental: as §1

RPMI-8226 = settings: RPMI-8226, Leukemia; 10 μM, 48 hours
Experimental: as §1

SW-620 = settings: SW-620, Colon Cancer; 10 μM, 48 hours
Experimental: as §1

EKVX = settings: Non-Small Cell Lung Cancer, 10 μM, 48 hours
Experimental: as §1

U251 = settings: U251, CNS Cancer; 10 μM, 48 hours
Experimental: as §1

BT-549 = settings: BT-549, Breast Cancer; 10 μM, 48 hours
Experimental: as §1

HOP-92 = settings: HOP-92, Non-Small Cell Lung Cancer; 10 μM, 48 hours
Experimental: as §1

SF-295 = settings: SF-295, CNS Cancer; 10 μM, 48 hours
Experimental: as §1

RXF 393 = settings: RXF 393, Renal Cancer; 10 μM, 48 hours
Experimental: as §1

MALME-3M = settings: Melanoma, 10 μM, 48 hours
Experimental: as §1

SNB-19 = settings: SNB-19, CNS Cancer; 10 μM, 48 hours
Experimental: as §1

T-47D = settings: Breast Cancer, 10 μM, 48 hours
Experimental: as §1

HCT-116 = settings: HCT-116, Colon Cancer; 10 μM, 48 hours
Experimental: as §1

MOLT-4 = settings: MOLT-4, Leukemia; 10 μM, 48 hours
Experimental: as §1

HCT-15 = settings: HCT-15, Colon Cancer; 10 μM, 48 hours
Experimental: as §1

ACHN = settings: Renal Cancer, 10 μM, 48 hours
Experimental: as §1

SK-MEL-28 = settings: SK-MEL-28, Melanoma; 10 μM, 48 hours
Experimental: as §1

| Structure (SMILES) | Growth Percent (K-562) | Growth Percent (786-0) | Growth Percent (M14) | Growth Percent (NCI-H522) | Growth Percent (SK-OV-3) | Growth Percent (HS 578T) | Growth Percent (NCI-H460) | Growth Percent (MCF7) | Growth Percent (SR) | Growth Percent (IGROV1) | Growth Percent (SN12C) | Growth Percent (OVCAR-5) | Growth Percent (HL-60(TB)) | Growth Percent (DU-145) | Growth Percent (UO-31) | Growth Percent (CCRF-CEM) | Growth Percent (HT29) | Growth Percent (COLO 205) | Growth Percent (LOX IMVI) | Growth Percent (MDA-MB-468) | further results |
| --- | --- | --- | --- | --- | --- | --- | --- | --- | --- | --- | --- | --- | --- | --- | --- | --- | --- | --- | --- | --- | --- |
| Cc1ccc(NC(=O)c2c(C)oc3ccc(O)c(CN4CCCCCC4)c23)cc1 [Compound 1] | 75.93% | 84.68% | 85.90% | 90.68% | 100.26% | 88.40% | 80.25% | 78.41% | 83.12% | 81.22% | 84.31% | 95.63% | 92.74% | 103.26% | 62.74% | 87.67% | 100.25% | 104.20% | 88.87% | 73.62% | Growth Percent (RPMI-8226): 91.38%; Growth Percent (SW-620): 85.97%; Growth Percent (EKVX): 83.79%; Growth Percent (U251): 88.66%; Growth Percent (BT-549): 92.88%; Growth Percent (HOP-92): 55.89%; Growth Percent (SF-295): 85.34%; Growth Percent (RXF 393): 81.36%; Growth Percent (MALME-3M): 107.60%; Growth Percent (SNB-19): 84.35%; Growth Percent (T-47D): 92.74%; Growth Percent (HCT-116): 64.67%; Growth Percent (MOLT-4): 92.81%; Growth Percent (HCT-15): 83.45%; Growth Percent (ACHN): 93.94%; Growth Percent (SK-MEL-28): 96.60% |
| Cc1oc2ccc(O)c(CN3CCCCCC3)c2c1C(=O)Nc1ccc(C(F)(F)F)cc1 [Compound 23] | 29.63% | 49.50% | 58.14% | 72.52% | 76.35% | 65.50% | 51.53% | 48.09% | −8.44% | 54.25% | 66.72% | 85.79% | 83.01% | 64.80% | 40.69% | 65.23% | 80.45% | 48.73% | 39.15% | 5.74% | Growth Percent (RPMI-8226): 75.08%; Growth Percent (SW-620): 67.44%; Growth Percent (EKVX): 64.06%; Growth Percent (U251): 55.07%; Growth Percent (BT-549): 78.51%; Growth Percent (HOP-92): 34.88%; Growth Percent (SF-295): 48.84%; Growth Percent (RXF 393): 50.40%; Growth Percent (MALME-3M): 49.92%; Growth Percent (SNB-19): 69.94%; Growth Percent (T-47D): 73.98%; Growth Percent (HCT-116): 32.68%; Growth Percent (MOLT-4): 64.31%; Growth Percent (HCT-15): 45.06%; Growth Percent (ACHN): 68.48%; Growth Percent (SK-MEL-28): 76.90% |
